Results from the supplement of paper PMC10307832.

How the values were obtained:
Assay in all cases: relative viability (nuclei count vs DMSO), 5 days (fraction); higher = more cells survive
[1] = compound: CCN1CCC(CC1)N2C=C(N=N2)CNC3=CC4=C(C(=CN=C4C(=C3)Cl)C#N)NC5=CC(=C(C=C5)F)Cl [KIN001-266] + CC(=O)Nc1cccc(-n2c(=O)n(C3CC3)c(=O)c3c(Nc4ccc(I)cc4F)n(C)c(=O)c(C)c32)c1 [Trametinib] (partner 0.02 µM)
Procedure, shortened: (§1)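 Relative viability is defined as nuclei in treated wells over nuclei in vehicle wells. Duplicate plates were run and medians reported. Lung cancer cell lines in 1536-well plates were dosed by pin tool one day after seeding, with one drug or with a fixed anchor-drug dose plus five library-drug doses (not always all listed) in √10 steps, and nuclei were counted after 5 days.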

[2] = compound: CCN1CCC(CC1)N2C=C(N=N2)CNC3=CC4=C(C(=CN=C4C(=C3)Cl)C#N)NC5=CC(=C(C=C5)F)Cl [KIN001-266] + O=C(c1cc(Cc2n[nH]c(=O)c3ccccc23)ccc1F)N1CCN(C(=O)C2CC2)CC1 [Olaparib] (partner 8 µM)
Procedure, shortened: as §1

[3] = compound: CCN1CCC(CC1)N2C=C(N=N2)CNC3=CC4=C(C(=CN=C4C(=C3)Cl)C#N)NC5=CC(=C(C=C5)F)Cl [KIN001-266] + CS(=O)(=O)CCNCc1ccc(-c2ccc3ncnc(Nc4ccc(OCc5cccc(F)c5)c(Cl)c4)c3c2)o1 [Lapatinib] (partner 2 µM)
Procedure, shortened: as §1

[4] = compound: CCN1CCC(CC1)N2C=C(N=N2)CNC3=CC4=C(C(=CN=C4C(=C3)Cl)C#N)NC5=CC(=C(C=C5)F)Cl [KIN001-266] + N=C(N)NC(=N)NCCc1ccccc1 [Phenformin] (partner 250 µM)
Procedure, shortened: as §1

Cell Line	relative viability ([1]; first compound 0.08 µM)	relative viability ([1]; first compound 0.253 µM)	relative viability ([1]; first compound 0.8 µM)	relative viability ([1]; first compound 2.53 µM)	relative viability ([1]; first compound 8 µM)	relative viability ([2]; first compound 0.08 µM)	relative viability ([2]; first compound 0.253 µM)	relative viability ([2]; first compound 0.8 µM)	relative viability ([2]; first compound 2.53 µM)	relative viability ([2]; first compound 8 µM)	relative viability ([3]; first compound 0.08 µM)	relative viability ([3]; first compound 0.253 µM)	relative viability ([3]; first compound 0.8 µM)	relative viability ([3]; first compound 2.53 µM)	relative viability ([3]; first compound 8 µM)	relative viability ([4]; first compound 0.08 µM)	relative viability ([4]; first compound 0.253 µM)	relative viability ([4]; first compound 0.8 µM)	relative viability ([4]; first compound 2.53 µM)	relative viability ([4]; first compound 8 µM)
NCI-H1648	0.564	0.508	0.552	0.46	0.61	1	0.711	0.816	0.55	0.996	–	–	–	–	–	–	–	–	–	–
NCI-H2087	0.254	0.276	0.16	0.175	0.175	0.616	0.494	0.654	0.374	0.346	1.03	1.05	1.06	0.987	0.875	0.439	0.467	0.38	0.352	0.234
LU99A	0.546	0.489	0.494	0.552	0.458	0.271	0.283	0.2	0.213	0.164	1.16	1.07	1.03	0.834	0.803	0.971	0.805	0.815	0.649	0.682
HCC-366	0.446	0.468	0.32	0.334	0.277	0.403	0.339	0.271	0.3	0.227	0.911	1.03	1	1.05	1.02	0.657	0.644	0.596	0.567	0.509
EKVX	0.336	0.312	0.303	0.412	0.344	0.914	0.899	0.844	0.78	0.865	0.284	0.182	0.204	0.202	0.171	0.234	0.237	0.2	0.243	0.225
NCI-H522	0.78	0.907	0.797	0.638	0.706	0.672	0.785	0.665	0.559	0.483	–	–	–	–	–	0.656	0.641	0.653	0.629	0.591
NCI-H1755	0.727	0.802	0.775	0.792	0.684	0.933	0.865	0.896	0.864	0.815	0.987	1.04	1.06	0.996	0.987	0.643	0.62	0.625	0.621	0.549
